# Values quoted from earlier work as cited in patent US20020037899A1, “Compositions containing an inhibitor of dihydrofolate reductase and a folate” (priority 2000, published 2002).
# What was measured:
# [1] = not given; remark: listed apart in the source
# [2] = tested on: rheumatoid arthritis patients receiving methotrexate; details: for reduction in mucosal and gastrointestinal side effect: folic acid or folinic acid administered to rheumatoid arthritis patients receiving methotrexate
SMILES,solubility in water,stable to heating at temperatures [1],reduction in mucosal and gastrointestinal side effect [2],"effect on disease symptoms such as painful joints ([2]; high dosages of folinic acid, rheumatoid arthritis patients receiving methotrexate)"
Nc1nc2ncc(CNc3ccc(C(=O)N[C@@H](CCC(=O)O)C(=O)O)cc3)nc2c(=O)[nH]1 [folic acid],1.6 mg per ml,below 200 °C,79%,–
Nc1nc(=O)c2c([nH]1)NCC(CNc1ccc(C(=O)N[C@@H](CCC(=O)O)C(=O)O)cc1)N2C=O (mixture of isomers) [folinic acid],–,–,79%,increase in disease symptoms
